Data on three compounds can be found in US20260284066A1, “TYK2 INHIBITORS AND COMPOSITIONS AND METHODS THEREOF” (LYNK PHARMACEUTICALS CO. LTD., priority 2023, published 2026).

In brackets after ≈: the same amount, converted by molar mass.

In one data set the target is T1, TYK2 (Homo sapiens, UniProt P29597).
T1 construct: purchased Carna Biosciences
T1 sequence (P29597 897-1176 limits assumed): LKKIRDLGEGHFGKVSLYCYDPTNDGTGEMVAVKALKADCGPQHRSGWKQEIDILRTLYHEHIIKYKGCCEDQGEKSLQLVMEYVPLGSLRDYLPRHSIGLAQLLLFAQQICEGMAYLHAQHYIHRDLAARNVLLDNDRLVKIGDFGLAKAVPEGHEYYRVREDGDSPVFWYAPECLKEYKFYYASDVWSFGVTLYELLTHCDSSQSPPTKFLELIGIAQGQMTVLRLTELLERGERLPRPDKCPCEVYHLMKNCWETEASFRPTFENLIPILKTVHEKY
The experiment in a line: TYK2 kinase activity, microfluidic assay (Caliper). Format: biochemical. The conditions noted are these: TYK2 20 nM, 1 mM ATP. The procedure:
(§1) Testing for JAK1, JAK2 and TYK2 Kinase Activities
(§2) JAK activity was determined in the reaction buffer 50 mM HEPES, 0.01% Brij35, 10 mM MgCl2, 2 mM DTT by a microfluidic assay. The phosphorylation of a FAM labeled peptide substrate was monitored in the Caliper EZ Reader II (Perkin Elmer). The assay condition for each batch of enzyme (Carna Biosciences) was optimized to obtain 10% conversion rate of peptide substrate.
(§3) The test compounds were dissolved in DMSO to a stock concentration of 10 mM. Three-fold serially diluted compounds with top concentration of 5 μM were pre-incubated with JAK1, JAK2 or TYK2 for 10 min at ambient temperature. The final DMSO concentration of assay mixture was 1%. […] The reaction was stopped by adding 50 mM EDTA.
(§4) And the well without compound but with equivalent DMSO was defined as no inhibition. The percent inhibition was calculated by the following formula:
(§5) wherein • Conversion %_max=the conversion rate in the positive well without addition of compound • Conversion %_sample=the conversion rate of test compounds • Conversion %_min=the conversion rate in the well without addition of enzyme
(§6) The dose-response (percent inhibition) curve was plotted and IC50 values were determined by GraphPad software. The IC50 values of tested compounds were list in Table 3.

In another data set the target is T2, JAK2 (Homo sapiens, UniProt O60674).
T2 construct: purchased Carna Biosciences
In words: JAK2 kinase activity, microfluidic assay (Caliper). It is filed as biochemical. The conditions noted are these: JAK2 1.5 nM, 1 mM ATP. The procedure: as §1, §2, §3, §4, §5, §6

A further data set addresses T3, JAK1-JH2 domain (Homo sapiens, UniProt P23458).
T3 construct: JAK1-JH2 domain or TYK2-JH2 domain enzyme
In words: Binding activity test for JAK1 JH2 domain (Tb-antibody/tracer FRET). Particulars: read-out: JAK1 JH2 Binding IC50.

Another data set deals with TYK2 pathway. In words: IFN-γ release in NK92 cells stimulated by IL-12 (ELISA). It is filed as cell-based. Particulars: Homo sapiens, IL-12 2.5 ng/mL. For orientation: In an ELISA, binding on a coated surface is turned into a signal by an enzyme label.
A further data set in a line: Kinetic solubility. It is filed as physicochemical. The conditions noted are these: aqueous buffer, 100 mM pH 7.4 phosphate buffer, 1% DMSO, room temperature, read-out: Kinetics Solubility_PBS7.4. As to the method:
Aliquots of 8 μL of reference and test compound stock solutions (10 mM/5 mM) are added into 792 μL of 100 mM pH 7.4 phosphate buffer. The final DMSO concentration is 1%. Sample tubes are shaken for 2 hours at 1000 rpm at room temperature. Samples are centrifuged at 12000 rpm for 10 min to precipitate un-dissolved particles. And transfer the supernatants to a new tube or plate. Add 5 μL of samples (no diluted, 10 times diluted and 100 times diluted) and standard curve samples to 95 μL of ACN containing IS for LC-MS/MS analysis.

The test system of another data set is pSTAT1. In words: Phosphorylation inhibition of STAT in human whole blood (IFN-alpha stimulated, flow cytometry). It is filed as cell-based. Particulars: T-cell, CD3+ T cells, read-out: pSTAT1 inhibition in hWB (IC50). As to the method:
Phosphorylation Inhibition of STAT in Human Whole Blood Testing: The inhibitory potential of test articles in human whole blood assay was evaluated by the method of flow cytometry. IFN-alpha will activate JAK1 and TYK2 kinase in T cells by binding to IFN receptors, and then lead to phosphorylation of STAT1 and STAT2. The phosphorylated STAT1 enter nuclear and promote transcription and expression of IFN-gamma. To evaluate the efficacy of TYK2i in T cells, freshly collected human whole blood will be stimulated with certain unit of human IFN-alpha (Universal Type I IFN (1MU), R&D, 11200-2) for 20 mins in incubator. After stimulation, fix cells with PhosflowTM Fix Buffer I (BD, 557870), and then collect fixed cells by centrifugation (500 g, 8 min). Wash cells once with pre-cooled PBS, and then permeabilize cells with cold Perm Buffer III buffer (BD, 558050) for 45 mins on ice. Collect cells by centrifugation (600 g, 8 min) and washed twice with cold PBS. Stain cells with anti-human CD3(FITC Mouse Anti-Human CD3, BD, 555332) and anti-pSTAT1_Y701 (Alexa Fluor 647 Mouse Anti-Stat1 ([…]), BD, 612597) antibodies. Detect pSTAT1 by flow cytometry (CytoFlex S) and analyze data with FlowJo and GraphPad Prism 8 software. IC50 values of test articles were determined using 4-parameter logistic equation.

Another data set concerns the target T4, TYK2-JH2 domain (Homo sapiens, UniProt P29597).
T4 construct: JAK1-JH2 domain or TYK2-JH2 domain enzyme
In words: Binding activity test for TYK2 JH2 domain (Tb-antibody/tracer FRET). The conditions noted are these: for JAK1/TYK2 selectivity: ratio of JAK1 JH2 to TYK2 JH2 binding IC50; for IC50: read-out: TYK2 JH2 Binding IC50.

A further data set addresses T5, JAK1 (Homo sapiens, UniProt P23458).
T5 construct: purchased Carna Biosciences
In words: JAK1 kinase activity, microfluidic assay (Caliper). It is filed as biochemical. The conditions noted are these: JAK1 10 nM, 1 mM ATP. As to the method:
as §1, §2, §3, §4, §5, §6

The nature of data set [1]: Microsomal metabolic stability assay. Format: in vitro ADME, human. Particulars: human, liver microsomes, pH 7.4, human liver microsomes 0.5 mg/mL. An outline of the steps: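 Pre-incubated 5 min at 37 °C in 100 mM potassium phosphate pH 7.4, 1.0 mM EDTA; final 0.5 mg/mL microsomal protein, 1 μM test article, 2 mM NADPH. Sampled at 0, 5, 15, 30, 45 min, quenched with cold acetonitrile, LC/MS/MS. T1/2 from ln % remaining vs time; CLint = 0.693/T1/2/mg protein per mL.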

T2 sequence (O60674 849-1124 limits assumed): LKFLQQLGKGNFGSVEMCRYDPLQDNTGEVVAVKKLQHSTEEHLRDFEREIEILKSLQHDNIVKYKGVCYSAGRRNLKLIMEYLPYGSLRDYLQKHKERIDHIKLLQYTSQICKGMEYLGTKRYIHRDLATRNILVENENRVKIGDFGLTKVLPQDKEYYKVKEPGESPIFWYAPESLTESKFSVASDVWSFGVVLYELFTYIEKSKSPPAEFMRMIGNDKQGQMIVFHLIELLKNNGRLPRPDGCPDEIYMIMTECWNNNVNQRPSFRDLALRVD
T5 sequence (P23458 875-1153 limits assumed): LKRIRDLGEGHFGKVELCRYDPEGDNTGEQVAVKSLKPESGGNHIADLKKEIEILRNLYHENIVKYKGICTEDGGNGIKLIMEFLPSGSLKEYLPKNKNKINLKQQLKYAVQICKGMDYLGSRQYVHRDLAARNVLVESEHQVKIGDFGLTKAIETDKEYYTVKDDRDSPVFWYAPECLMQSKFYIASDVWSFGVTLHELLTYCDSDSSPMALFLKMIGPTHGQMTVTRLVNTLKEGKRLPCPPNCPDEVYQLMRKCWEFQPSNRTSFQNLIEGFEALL
T4 sequence (P29597 589-875 limits assumed): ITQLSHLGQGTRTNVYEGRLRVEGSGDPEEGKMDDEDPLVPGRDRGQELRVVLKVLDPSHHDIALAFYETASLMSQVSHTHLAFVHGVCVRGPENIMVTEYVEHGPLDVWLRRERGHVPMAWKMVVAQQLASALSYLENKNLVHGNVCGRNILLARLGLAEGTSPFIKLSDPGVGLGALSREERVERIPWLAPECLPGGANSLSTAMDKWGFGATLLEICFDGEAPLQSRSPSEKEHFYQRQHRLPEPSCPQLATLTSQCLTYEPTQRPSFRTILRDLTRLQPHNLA
T3 sequence (P23458 583-855 limits assumed): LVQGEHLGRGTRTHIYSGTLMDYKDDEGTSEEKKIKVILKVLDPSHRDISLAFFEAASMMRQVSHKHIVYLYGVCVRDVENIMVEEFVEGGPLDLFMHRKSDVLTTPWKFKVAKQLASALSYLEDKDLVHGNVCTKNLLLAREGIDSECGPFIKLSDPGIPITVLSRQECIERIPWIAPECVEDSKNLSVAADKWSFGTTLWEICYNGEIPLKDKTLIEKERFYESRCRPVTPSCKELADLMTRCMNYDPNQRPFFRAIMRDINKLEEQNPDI
Excerpt for TYK2 pathway: IFN-γ Release in NK92 Cells Stimulated by IL-12
Purpose: To evaluate the inhibition activity of TYK2 inhibitors in NK92 cells on TYK2 pathway through ELISA method.
Description for TYK2-JH2 domain: Binding Activity test for JH2 domain of JAK and TYK2
75 nL DMSO for high control and low control.
For low control, add 5 μL/well assay buffer. […] After enzyme system prepared, add 5 μL of Tb-antibody solution into each wells of assay plate. […] After Tb-antibody added, also add 5 μL of tracer into the assay plate. […] Incubate for 60 mins at 25° C. firstly and then continue to incubate the plate at 4° C. overnight. Read by envision in FRET mode. The Luminescence value was recorded by a multi-label reader Envision (PerkinElmer). Inhibition Rate was calculated relative to vehicle (DMSO) treated control wells using following formula:
wherein • RLU_compound=the relative light unit of cells treated with test compounds • RLU_low control=the relative light unit of medium with DMSO only • RLU_high control=the relative light unit of cells treated with DMSO only

In general, IC50 refers to the concentration that inhibits the measured activity by half. Turning to `[2H]C([2H])([2H])NC(=O)c1cnc(Nc2ccc(N3CCOCC3)cn2)cc1Nc1ccc2cnn(CC(C)(F)F)c2c1OC` [Example 4, 4-((1-(2,2-Difluoropropyl)-7-methoxy-1H-indazol-6-yl)amino)-N-(methyl-d3)-6-((5-morpholinopyridin-2-yl)amino)nicotinamide], the 50% inhibitory concentration (IC50) on TYK2 is over 20000 nM; at JAK2 it was over 20000 nM; at JAK1-JH2 domain it was 8.45 nM; with TYK2 pathway, 14 nM; in the data set on pSTAT1 it was 152 nM; at TYK2-JH2 domain it was 0.165 nM. In addition, at JAK1, the IC50 was over 20000 nM. The solubility kinetic at 2 h in the data set “Kinetic solubility” is 61.8 µM (≈ 34.3 µg/mL). Moreover, the JAK1/TYK2 selectivity on TYK2-JH2 domain came out at 51.23.

Regarding `CNC(=O)c1cnc(NC(=O)C2CC2)cc1Nc1ncc2cnn(CC(C)(F)F)c2c1OC` [Example 23, 6-(Cyclopropanecarboxamido)-4-((1-(2,2-difluoropropyl)-7-methoxy-1H-pyrazolo[4,3-c]pyridin-6-yl)amino)-N-methylnicotinamide], the IC50 was over 20000 nM against TYK2; over 20000 nM against JAK2; 126 nM on JAK1-JH2 domain; 17.4 nM in the data set with TYK2 pathway; 0.315 nM on TYK2-JH2 domain; over 20000 nM against JAK1. Also, at TYK2-JH2 domain, the JAK1/TYK2 selectivity stood at 398.70.

`[2H]C([2H])([2H])NC(=O)c1nnc(NC(=O)C2CC2)cc1Nc1ncc2cnn(CC(C)(F)F)c2c1OC` [Example 24, 6-(Cyclopropanecarboxamido)-4-((1-(2,2-difluoropropyl)-7-methoxy-1H-pyrazolo[4,3-c]pyridin-6-yl)amino)-N-(methyl-d3)pyridazine-3-carboxamide]: the IC50 at TYK2 was over 20000 nM; at JAK2 it was over 20000 nM; at JAK1-JH2 domain, 21.6 nM; in the data set on TYK2 pathway, 8.94 nM; on TYK2-JH2 domain, 0.271 nM; at JAK1, over 20000 nM. In addition, the JAK1/TYK2 selectivity at TYK2-JH2 domain stood at 79.86. In addition, the microsomal CLint at 1 µM in data set [1] (read-out: Human LM Clint) came out at 4.16 µL/min/mg. In data set [1] (read-out: Human LM T½), the half-life at 1 µM stood at 5.55 h.
